# Assays:
# [1] = Oral bioavailability in Wistar-Han rat at 2 mg/kg administered as single dose; type: ADME, organism-based; details: in vivo
# [2] = Fraction unbound in Wistar-Han rat plasma at 1 mg/kg, iv or 2 mg/kg, po administered as single dose; type: ADME, organism-based
# Rattus norvegicus [3] = assay: Antidiabetic activity in Sprague-Dawley rat assessed as inhibition of blood glucose AUC at 3 mg/kg, po treated prior to dextrose challenge and measured after 20 to 60 mins by IPGTT relative to control; type: functional
# Bile salt export pump = Bile salt export pump (Homo sapiens, UniProt O95342); assay: Inhibition of human BSEP expressed in baculovirus infected Sf9 insect cell membrane vesicles assessed as reduction in ATP-dependent [3H]-taurocholic acid uptake; type: ADME
# [4] = Volume of distribution at steady state in Wistar-Han rat at 1 mg/kg, iv or 2 mg/kg, po administered as single dose; type: ADME, organism-based; details: in vivo, read-out: Vdss
# [5] = target: T1, Free fatty acid receptor 1 (Homo sapiens, UniProt O14842); assay: Agonist activity at recombinant human GPR40 expressed in HEK293 cells assessed as increase in IP1 accumulation measured after 60 mins by HTRF assay; type: functional, cell-based
# [6] = target: Free fatty acid receptor 1 (Rattus norvegicus, UniProt Q8K3T4); assay: Agonist activity at recombinant rat GPR40 expressed in CHOK1 cells assessed as increase in IP1 accumulation measured after 60 mins by HTRF assay; type: functional, cell-based
# [7] = target: T2, Free fatty acid receptor 4 (Homo sapiens, UniProt Q5NUL3); assay: Agonist activity at GPR120 (unknown origin); type: functional
# T2 sequence (Q5NUL3 whole entry): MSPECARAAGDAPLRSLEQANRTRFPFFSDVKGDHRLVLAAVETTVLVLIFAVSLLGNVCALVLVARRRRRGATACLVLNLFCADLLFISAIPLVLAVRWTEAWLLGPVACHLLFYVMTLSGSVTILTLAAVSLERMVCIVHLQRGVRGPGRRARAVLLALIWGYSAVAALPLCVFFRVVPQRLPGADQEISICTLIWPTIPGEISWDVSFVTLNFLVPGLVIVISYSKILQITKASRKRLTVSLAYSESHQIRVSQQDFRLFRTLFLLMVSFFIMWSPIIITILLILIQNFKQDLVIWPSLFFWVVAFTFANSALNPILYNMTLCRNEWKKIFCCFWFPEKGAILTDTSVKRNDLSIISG
# [8] = Clearance in Wistar-Han rat at 1 mg/kg, iv or 2 mg/kg, po administered as single dose; type: ADME, organism-based; details: in vivo
# [9] = Lipophilicity, log D of the compound at pH 7 at 100 uM by HPLC method; type: physicochemical; details: buffer
# [10] = target: T1, Free fatty acid receptor 1; assay: Agonist activity at recombinant human GPR40 expressed in HEK293 cells assessed as increase in IP1 accumulation measured after 60 mins in presence of 100% human serum by HTRF assay; type: functional, cell-based
# Rattus norvegicus [11] = assay: Antidiabetic activity in po dosed Goto Kakizaki rats assessed as reduction in blood glucose excursion pretreated for 1 hr followed by dextrose challenge measured after 20 to 60 mins by OGTT method; type: functional; details: read-out: MED
# [12] = Effective half life in Wistar-Han rat at 1 mg/kg, iv or 2 mg/kg, po administered as single dose; type: ADME, organism-based; details: in vivo, read-out: t1/2eff (converted)
# Rattus norvegicus [13] = assay: Antidiabetic activity in Goto Kakizaki rats assessed as inhibition of blood glucose AUC at 0.3 mg/kg, po pretreated for 1 hr followed by dextrose challenge measured after 20 to 60 mins by OGTT method relative to control; type: functional
# Rattus norvegicus [14] = assay: Antidiabetic activity in Goto Kakizaki rats assessed as inhibition of blood glucose AUC at 3 mg/kg, po pretreated for 1 hr followed by dextrose challenge measured after 20 to 60 mins by OGTT method relative to control; type: functional
# Rattus norvegicus [15] = assay: Antidiabetic activity in Goto Kakizaki rats assessed as inhibition of blood glucose AUC at 1 mg/kg, po pretreated for 1 hr followed by dextrose challenge measured after 20 to 60 mins by OGTT method relative to control; type: functional
# Rattus norvegicus [16] = assay: Antidiabetic activity in Goto Kakizaki rats assessed as inhibition of blood glucose AUC at 10 mg/kg, po pretreated for 1 hr followed by dextrose challenge measured after 20 to 60 mins by OGTT method relative to control; type: functional
# Rattus norvegicus [17] = assay: Antidiabetic activity in Goto Kakizaki rats assessed as inhibition of blood glucose AUC at 30 mg/kg, po pretreated for 1 hr followed by dextrose challenge measured after 20 to 60 mins by OGTT method relative to control; type: functional
# Rattus norvegicus [18] = assay: Antidiabetic activity in Goto Kakizaki rats assessed as plasma concentration required for reduction in blood glucose excursion at 10 mg/kg, po pretreated for 1 hr followed by dextrose challenge measured 3 hrs post dose by OGTT; type: functional, organism-based
# [19] = target: Free fatty acid receptor 1 (Rattus norvegicus) (UniProt Q8K3T4); assay: Agonist activity at recombinant rat GPR40 expressed in CHOK1 cells assessed as increase in IP1 accumulation measured after 60 mins by HTRF assay relative to AM-1638; type: functional, cell-based
# [20] = target: T1, Free fatty acid receptor 1; assay: Agonist activity at recombinant human GPR40 expressed in HEK293 cells assessed as increase in IP1 accumulation measured after 60 mins in presence of 100% human serum by HTRF assay relative to AM-1638; type: functional, cell-based
# Rattus norvegicus [21] = assay: Antidiabetic activity in Goto Kakizaki rats assessed as plasma concentration required for reduction in blood glucose excursion at 30 mg/kg, po pretreated for 1 hr followed by dextrose challenge measured 3 hrs post dose by OGTT; type: functional, organism-based
# Rattus norvegicus [22] = assay: Antidiabetic activity in po dosed Goto Kakizaki rats assessed as plasma concentration required for reduction in blood glucose excursion at MED pretreated for 1 hr followed by dextrose challenge measured 3 hrs post dose by OGTT; type: functional, organism-based
# Rattus norvegicus [23] = assay: Antidiabetic activity in Goto Kakizaki rats assessed as plasma concentration required for reduction in blood glucose excursion at 1 mg/kg, po pretreated for 1 hr followed by dextrose challenge measured 3 hrs post dose by OGTT; type: functional, organism-based
# Rattus norvegicus [24] = assay: Antidiabetic activity in Goto Kakizaki rats assessed as plasma concentration required for reduction in blood glucose excursion at 0.3 mg/kg, po pretreated for 1 hr followed by dextrose challenge measured 3 hrs post dose by OGTT; type: functional, organism-based
# [25] = target: T1, Free fatty acid receptor 1; assay: Agonist activity at recombinant human GPR40 expressed in HEK293 cells assessed as increase in IP1 accumulation measured after 60 mins by HTRF assay relative to AM-1638; type: functional, cell-based
# Rattus norvegicus [26] = assay: Antidiabetic activity in Goto Kakizaki rats assessed as plasma concentration required for reduction in blood glucose excursion at 3 mg/kg, po pretreated for 1 hr followed by dextrose challenge measured 3 hrs post dose by OGTT; type: functional, organism-based
# T1 sequence (O14842 whole entry): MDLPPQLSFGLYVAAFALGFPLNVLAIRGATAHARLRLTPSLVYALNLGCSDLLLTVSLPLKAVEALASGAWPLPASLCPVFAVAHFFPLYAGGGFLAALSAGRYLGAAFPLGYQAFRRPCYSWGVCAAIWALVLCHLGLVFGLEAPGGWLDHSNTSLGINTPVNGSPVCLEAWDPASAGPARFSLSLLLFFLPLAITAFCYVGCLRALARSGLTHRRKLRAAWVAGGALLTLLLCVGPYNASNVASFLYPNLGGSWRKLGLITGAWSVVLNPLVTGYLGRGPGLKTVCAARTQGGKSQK
# Chain of Free fatty acid receptor 1 (Rattus norvegicus, UniProt Q8K3T4) (Q8K3T4 whole entry): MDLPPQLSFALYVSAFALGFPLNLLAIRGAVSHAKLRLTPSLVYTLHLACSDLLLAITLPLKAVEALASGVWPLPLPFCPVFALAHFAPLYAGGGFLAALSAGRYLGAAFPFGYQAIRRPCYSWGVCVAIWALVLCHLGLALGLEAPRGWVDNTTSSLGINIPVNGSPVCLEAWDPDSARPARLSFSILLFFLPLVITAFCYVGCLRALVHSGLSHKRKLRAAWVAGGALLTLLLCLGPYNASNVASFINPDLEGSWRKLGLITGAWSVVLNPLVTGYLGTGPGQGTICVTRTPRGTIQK
# Chain of Bile salt export pump (O95342 whole entry): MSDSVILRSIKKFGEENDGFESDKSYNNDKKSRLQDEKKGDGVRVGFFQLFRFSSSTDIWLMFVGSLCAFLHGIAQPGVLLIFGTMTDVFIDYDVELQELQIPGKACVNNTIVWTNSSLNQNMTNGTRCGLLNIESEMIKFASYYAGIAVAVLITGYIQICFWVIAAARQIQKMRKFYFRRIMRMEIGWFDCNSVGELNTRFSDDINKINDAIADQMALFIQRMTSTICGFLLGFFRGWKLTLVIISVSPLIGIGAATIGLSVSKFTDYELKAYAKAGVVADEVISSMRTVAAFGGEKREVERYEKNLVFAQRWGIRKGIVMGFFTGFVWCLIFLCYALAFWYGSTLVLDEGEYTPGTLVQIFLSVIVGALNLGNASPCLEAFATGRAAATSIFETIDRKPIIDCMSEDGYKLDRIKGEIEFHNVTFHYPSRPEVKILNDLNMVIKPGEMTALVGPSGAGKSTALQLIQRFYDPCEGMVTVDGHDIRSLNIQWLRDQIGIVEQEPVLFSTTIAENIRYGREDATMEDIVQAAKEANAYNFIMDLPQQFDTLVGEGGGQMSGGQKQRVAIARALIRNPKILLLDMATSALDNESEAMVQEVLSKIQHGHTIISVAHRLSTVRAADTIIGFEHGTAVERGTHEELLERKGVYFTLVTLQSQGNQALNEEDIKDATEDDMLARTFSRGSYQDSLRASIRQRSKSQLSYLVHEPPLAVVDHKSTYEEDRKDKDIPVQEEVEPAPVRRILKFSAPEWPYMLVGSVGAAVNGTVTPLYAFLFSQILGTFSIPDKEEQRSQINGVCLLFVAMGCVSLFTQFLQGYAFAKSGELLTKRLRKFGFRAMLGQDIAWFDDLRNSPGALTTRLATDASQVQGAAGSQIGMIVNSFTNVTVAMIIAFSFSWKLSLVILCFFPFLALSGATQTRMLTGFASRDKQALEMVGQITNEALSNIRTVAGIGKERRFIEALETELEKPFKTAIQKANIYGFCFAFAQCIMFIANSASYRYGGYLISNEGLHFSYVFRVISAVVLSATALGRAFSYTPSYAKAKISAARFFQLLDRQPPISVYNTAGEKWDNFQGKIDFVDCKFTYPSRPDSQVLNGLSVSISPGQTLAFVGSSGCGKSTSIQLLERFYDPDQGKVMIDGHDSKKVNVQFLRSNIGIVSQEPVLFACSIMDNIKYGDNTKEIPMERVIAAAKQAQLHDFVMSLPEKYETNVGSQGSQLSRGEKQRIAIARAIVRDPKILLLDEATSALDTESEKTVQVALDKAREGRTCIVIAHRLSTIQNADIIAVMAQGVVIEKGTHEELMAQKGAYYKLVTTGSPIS
# Chain of Free fatty acid receptor 1 (Rattus norvegicus) (Q8K3T4 whole entry): as the sequence (Q8K3T4 whole entry) above
SMILES,bioavailability [1] [%],fraction unbound [2],inhibition (INH) (Rattus norvegicus [3]) [%],IC50 (Bile salt export pump) [nM],Vd [4] [L/kg],EC50 [5] [nM],EC50 [6] [nM],EC50 [7] [µM],clearance [8] [mL/min/kg],logD at 100 µM [9],EC50 [10] [nM],minimal effective dose (Rattus norvegicus [11]) [mg/kg],half-life [12] [min],other results
COc1ccc(F)c(-c2ccc(C3CCc4ccc([C@H](C5CC5)[C@H](C)C(=O)[O-])cc4O3)cc2)c1.[Na+] (stereo in doubt; 14),50,0.005,103,1400,0.41,1.1,1.2,> 10,3.1,2.94,146,10,210,–
COc1ccc(F)c(-c2ccc(C3CCc4ccc([C@H](C5CC5)[C@H](C)C(=O)[O-])cc4O3)nc2)c1.[Na+] (stereo in doubt; 16),–,0.003,99,300,–,–,2.3,> 10,–,2.25,–,30,–,–
COc1cc(-c2ccc(C3CCc4ccc([C@H](C5CC5)[C@H](C)C(=O)[O-])cc4O3)nc2)c(F)cn1.[Na+] (stereo in doubt; 29),100,0.001,–,3200,0.41,2.7,5.2,> 10,1.2,–,243,30,384,"inhibition in vivo at 0.3 mg/kg (Rattus norvegicus [13]): 35%; inhibition in vivo at 3 mg/kg (Rattus norvegicus [3]; Rattus norvegicus, Sprague-Dawley, po): 108%; inhibition in vivo at 3 mg/kg (Rattus norvegicus [14]): 96%; inhibition in vivo at 1 mg/kg (Rattus norvegicus [15]): 69%; inhibition in vivo at 10 mg/kg (Rattus norvegicus [16]): 111%; inhibition in vivo at 30 mg/kg (Rattus norvegicus [17]): 121%"
COc1cc(-c2ccc(C3CCc4ccc([C@H](C5CC5)[C@H](C)C(=O)O)cc4O3)nc2)c(F)cn1 (stereo in doubt; 29),–,–,–,–,–,–,–,–,–,–,–,–,–,Cp (Rattus norvegicus [18]): 11 µM; max activation [19]: > 370%; max activation [20]: > 179%; Cp (Rattus norvegicus [21]): 32 µM; Cp (Rattus norvegicus [22]): 32 µM; Cp (Rattus norvegicus [23]): 2 µM; Cp (Rattus norvegicus [24]): 0.44 µM; max activation [25]: > 179%; Cp (Rattus norvegicus [26]): 5.4 µM
